Like-named read-outs stand apart in the source and are kept apart here.
Legend:
GIST-T1-SDHB-KO cells = experiment: Cell viability in lipid-depleted medium (CellTiter 96 Aqueous); format: cell-based; conditions: 3 nM; compared with GIST-T1 cells
VEGFR3 = VEGFR3 (Homo sapiens, UniProt P35916); experiment: In vitro biochemical kinase assay; conditions: kinase activity
GIST 430 = system: GIST 430; design: method as in HQP1351 SJ0003 Protocol; conditions: imatinib-resistant (exon 11 & exon 13); ref HQP1351 SJ0003 Protocol; cited from earlier work
CYP2C19 = system: CYP2C19; design: method as in HQP1351 SJ0003 Protocol; conditions: 0 - 50 μM; ref HQP1351 SJ0003 Protocol; cited from earlier work
[1] = ref HQP1351 SJ0003 Protocol, cited from earlier work; for AUC0-24h / Cmax: Day 28
[2] = system: Chinese hamster lung fibroblasts; design: method as in HQP1351 SJ0003 Protocol; conditions: ref HQP1351 SJ0003 Protocol; cited from earlier work
TKI-resistant GIST = experiment: SJ-0003 interim efficacy assessment; format: in vivo, human; conditions: as of January 31, 2021; 28 of 36 GIST subjects with at least one efficacy assessment
Procedure: Guangzhou HealthQuest Pharma Inc. HQP1351 […]
completely recovered to normal. The no observed adverse effect level (NOAEL) was 1.0 […]
In a 28-day repeat-dose toxicity study in Beagle dogs (28 -day recovery period), red blood cells, hemoglobin, hematocrit, platelets, white blood cells, neutrophils, and fibrinogen increased in 3 mg/kg/day dose group. Total protein and globulin decreased, A/ G, fibrinogen, creatine kinase increased in the 1.5 mg/kg/day dose group. In addition, lymphocytes decreased was […]
the recovery period, all of the above changes recovered to normal. Intragastric HQP1351 3 […]
The main target organs for toxicity were stomach, intestine, thymus, spleen, lymph nodes and Peyer's patches, sternal bone marrow, lip and tongue mucosa, and toxicities were reversible to a certain extent. After 4-week drug withdrawal, all of the above symptoms of surviving animals in this group recovered to normal. The NOAEL was 1.5 mg/kg/day. […]
genotoxicity on bone marrow cells.
As of February 2021, HQP1351 has undergone a total of 9 clinical studies, including 3 Phase […]
conducted in China except for HQP1351CU101 and HQP1351XC106 which were conducted in the United States. […]
In the Phase I CML study of HQP1351 (SJ-0002), the PK of HQP1351 were assessed in a total of 65 CML patients receiving HQP1351 at dose levels of 1-60 mg every other day under fed

[3] = design: method as in HQP1351 SJ0003 Protocol; conditions: ref HQP1351 SJ0003 Protocol, cited from earlier work
[4] = system: GIST human gastrointestinal stromal tumor with different c-KIT mutations; design: method as in HQP1351 SJ0003 Protocol; conditions: ref HQP1351 SJ0003 Protocol, cited from earlier work
[5] = design: method as in HQP1351 SJ0003 Protocol; conditions: 1.0 mg/kg oral; ref HQP1351 SJ0003 Protocol; cited from earlier work
[6] = Clinical pharmacokinetics in patients with GIST (noncompartmental); format: in vivo, human; conditions: for AUC(0-t) / Cmax / Vd/F / Tmax / half-life: human, plasma; for Vd/F: read-out: Vz/F; for Tmax: median (range)
Procedure: Noncompartmental pharmacokinetic analysis was conducted via Phoenix WinNonlin software (version 6.4).

FGFR4 = FGFR4 (Homo sapiens, UniProt P22455); experiment: In vitro biochemical kinase assay; conditions: kinase activity
Chain of FGFR4 (P22455 22-802): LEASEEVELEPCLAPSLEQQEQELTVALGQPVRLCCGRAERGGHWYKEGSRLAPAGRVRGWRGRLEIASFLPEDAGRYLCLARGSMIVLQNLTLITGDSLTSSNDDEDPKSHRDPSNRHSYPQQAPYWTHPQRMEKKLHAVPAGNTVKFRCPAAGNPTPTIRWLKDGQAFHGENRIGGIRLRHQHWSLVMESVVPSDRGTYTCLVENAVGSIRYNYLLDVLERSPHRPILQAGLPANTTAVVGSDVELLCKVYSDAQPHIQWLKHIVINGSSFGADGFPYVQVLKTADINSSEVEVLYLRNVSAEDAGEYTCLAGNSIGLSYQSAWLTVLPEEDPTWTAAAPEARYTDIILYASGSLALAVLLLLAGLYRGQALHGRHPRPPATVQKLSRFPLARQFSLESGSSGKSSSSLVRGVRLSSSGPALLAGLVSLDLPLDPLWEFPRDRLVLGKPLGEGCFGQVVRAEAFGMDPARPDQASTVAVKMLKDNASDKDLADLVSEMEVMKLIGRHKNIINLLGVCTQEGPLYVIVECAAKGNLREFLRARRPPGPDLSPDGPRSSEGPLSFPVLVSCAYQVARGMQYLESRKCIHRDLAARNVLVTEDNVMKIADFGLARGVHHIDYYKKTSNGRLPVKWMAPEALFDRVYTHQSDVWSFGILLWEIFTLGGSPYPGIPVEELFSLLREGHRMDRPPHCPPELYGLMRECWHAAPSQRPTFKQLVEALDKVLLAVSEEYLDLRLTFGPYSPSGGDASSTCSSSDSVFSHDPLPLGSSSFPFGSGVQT

[7] = system: MDA-MB-231 triple negative breast cancer xenografts; design: method as in HQP1351 SJ0003 Protocol; conditions: ref HQP1351 SJ0003 Protocol, cited from earlier work
[8] = cited from earlier work
[9] = 20 mg QOD oral, fed, steady state (Cycle 1 Day 27), mean (SD)
[10] = 30 mg QOD oral, fed, steady state (Cycle 1 Day 27), mean (SD)
[11] = 40 mg QOD oral, fed, steady state (Cycle 1 Day 27), mean (SD)
[12] = 50 mg QOD oral, fed, steady state (Cycle 1 Day 27), mean (SD)
[13] = 65 CML patients, 1-60 mg, single oral administration, fed, ref HQP1351 SJ0003 Protocol
[14] = SJ-0002 CML patient study, ref HQP1351 SJ0003 Protocol

Chain of VEGFR3 (P35916 25-1363): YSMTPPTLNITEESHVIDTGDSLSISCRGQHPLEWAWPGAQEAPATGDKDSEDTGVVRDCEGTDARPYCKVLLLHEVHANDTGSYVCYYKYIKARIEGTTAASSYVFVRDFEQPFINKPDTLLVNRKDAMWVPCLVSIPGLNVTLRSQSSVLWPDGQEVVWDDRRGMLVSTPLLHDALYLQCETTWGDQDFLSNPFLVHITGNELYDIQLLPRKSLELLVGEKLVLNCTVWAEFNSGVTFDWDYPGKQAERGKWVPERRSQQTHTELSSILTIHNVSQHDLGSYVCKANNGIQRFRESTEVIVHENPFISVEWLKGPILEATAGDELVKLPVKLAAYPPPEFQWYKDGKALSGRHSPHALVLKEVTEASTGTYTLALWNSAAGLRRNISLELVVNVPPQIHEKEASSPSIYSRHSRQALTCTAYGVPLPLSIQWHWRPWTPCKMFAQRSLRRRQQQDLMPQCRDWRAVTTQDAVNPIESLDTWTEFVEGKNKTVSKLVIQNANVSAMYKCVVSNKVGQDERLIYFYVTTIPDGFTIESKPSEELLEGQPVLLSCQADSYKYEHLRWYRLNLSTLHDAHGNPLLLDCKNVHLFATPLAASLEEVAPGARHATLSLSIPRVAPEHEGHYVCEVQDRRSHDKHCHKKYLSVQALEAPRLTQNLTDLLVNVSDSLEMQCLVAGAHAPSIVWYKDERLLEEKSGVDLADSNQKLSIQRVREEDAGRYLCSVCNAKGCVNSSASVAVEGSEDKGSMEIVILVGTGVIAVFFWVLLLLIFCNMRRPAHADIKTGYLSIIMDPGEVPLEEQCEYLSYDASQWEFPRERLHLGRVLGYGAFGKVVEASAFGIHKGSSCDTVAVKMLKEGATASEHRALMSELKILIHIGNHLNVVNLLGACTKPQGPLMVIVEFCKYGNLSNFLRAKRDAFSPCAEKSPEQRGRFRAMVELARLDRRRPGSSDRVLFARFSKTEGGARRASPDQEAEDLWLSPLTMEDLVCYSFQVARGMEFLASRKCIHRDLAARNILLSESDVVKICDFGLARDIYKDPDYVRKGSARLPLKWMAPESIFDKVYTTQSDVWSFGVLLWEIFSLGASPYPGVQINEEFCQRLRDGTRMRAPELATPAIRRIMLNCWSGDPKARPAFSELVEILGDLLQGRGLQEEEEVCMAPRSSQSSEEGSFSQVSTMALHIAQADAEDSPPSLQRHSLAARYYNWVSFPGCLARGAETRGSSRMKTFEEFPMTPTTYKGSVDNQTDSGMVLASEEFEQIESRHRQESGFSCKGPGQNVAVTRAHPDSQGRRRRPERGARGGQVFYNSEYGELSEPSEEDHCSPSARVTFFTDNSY

Cc1ccc(C(=O)Nc2ccc(CN3CCN(C)CC3)c(C(F)(F)F)c2)cc1C#Cc1cnc2[nH]ncc2c1 [Olverembatinib, 3-[(1H-pyrazolo[3,4-b]pyridin-5-yl)ethynyl]-4-methyl-N-{4-[(4-methylpiperazin-1-yl)methyl]-3-(trifluoromethyl)phenyl]benzamide]
sensitivity of cell viability, 3% FBS versus 10% FBS (GIST-T1-SDHB-KO cells): more sensitive to olverembatinib treatment | IC50 (VEGFR3): < 0.6 nM | IC50 (GIST 430): 91 ± 21 nM | inhibitory effect on CYP2C19 (CYP2C19): certain inhibitory effect | AUC0-24h ([1]; 0.5 mg/kg/day, female): 51.22 ng·h/mL | Cmax ([1]; 0.5 mg/kg/day, female): 5.26 ng/mL | AUC0-24h ([1]; 0.5 mg/kg/day, male): 40.83 ng·h/mL | Cmax ([1]; 0.5 mg/kg/day, male): 4.8 ng/mL | AUC0-24h ([1]; 1 mg/kg/day, female): 125.35 ng·h/mL | Cmax ([1]; 1 mg/kg/day, female): 9.36 ng/mL | AUC0-24h ([1]; 1 mg/kg/day, male): 89.58 ng·h/mL | Cmax ([1]; 1 mg/kg/day, male): 7.2 ng/mL | AUC0-24h ([1]; 2 mg/kg/day, female): 300.93 ng·h/mL | Cmax ([1]; 2 mg/kg/day, female): 25.22 ng/mL | AUC0-24h ([1]; 2 mg/kg/day, male): 409.43 ng·h/mL | Cmax ([1]; 2 mg/kg/day, male): 28.67 ng/mL | no observed adverse effect level (NOAEL) ([1]; 28-day repeat-dose, 28-day recovery period): 1.0 mg/kg/day | mortality ([1]; granules at 2 mg/kg/day daily for 28 consecutive days): early animal death was observed | teratogenicity on chromosomes [2]: no teratogenicity | subjects with progressive disease (PD) (TKI-resistant GIST): 18 subjects | absolute bioavailability ([3]; 0.5 mg/kg): 14.00% | absolute bioavailability ([3]; 1.0 mg/kg): 40.54% | mean time to peak plasma concentration (Tmax) [3]: 6 to 8 h | plasma elimination half-life (t1/2) [3]: 3 to 6 h | T/C (%) after the end of dosing ([4]; 20 mg/kg qod): 30.8%-69.8% | weight loss ([4]; 60 mg/kg qod 3 wks, in some tests): about 10% | minimal effective dose ([4]; every other days (qod)): 20 mg/kg | main distribution tissues [5]: lung, liver, and kidney | Cl/F [6, 9]: 67.2 ± 2.3 L/h | Cl/F [6, 10]: 87.7 ± 56.8 L/h | Cl/F [6, 11]: 79.9 ± 35.3 L/h | Cl/F [6, 12]: 87.5 ± 39.7 L/h | accumulation after multiple-dose administration ([6]; QOD): no significant accumulation | increase in Cmax and AUClast with dose ([6]; dose range of 20 to 50 mg): approximately dose-proportional increase | AUC(0-t) [6, 9]: 228 ± 6.4 ng·h/mL | Cmax [6, 9]: 9.18 ± 0.13 ng/mL | Vd/F [6, 9]: 2143 ± 17.1 L | Tmax ([6]; 20 mg QOD oral, fed, steady state (Cycle 1 Day 27)): 7 h | AUC(0-t) [6, 10]: 307 ± 121 ng·h/mL | Cmax [6, 10]: 12.5 ± 2.9 ng/mL | half-life ([6]; 30 mg QOD oral, fed, steady state (Cycle 1 Day 27), mean (SD), read-out: T1/2 (converted)): 27 ± 15.4 h | Vd/F [6, 10]: 2650 ± 877 L | Tmax ([6]; 30 mg QOD oral, fed, steady state (Cycle 1 Day 27)): 7 h | AUC(0-t) [6, 11]: 473 ± 177 ng·h/mL | Cmax [6, 11]: 21.8 ± 9.7 ng/mL | half-life ([6]; 40 mg QOD oral, fed, steady state (Cycle 1 Day 27), mean (SD), read-out: T1/2 (converted)): 18.9 ± 6.4 h | Vd/F [6, 11]: 2130 ± 990 L | AUC(0-t) [6, 12]: 518 ± 174 ng·h/mL | Cmax [6, 12]: 26.5 ± 16 ng/mL | half-life ([6]; 50 mg QOD oral, fed, steady state (Cycle 1 Day 27), mean (SD), read-out: T1/2 (converted)): 19.5 ± 6.8 h | Vd/F [6, 12]: 2350 ± 942 L | Tmax ([6]; 50 mg QOD oral, fed, steady state (Cycle 1 Day 27)): 8 h | half-life ([6]; oral doses ranging from 20 to 50 mg, read-out: mean t1/2): 18.9 to 27 h | IC50 (FGFR4): < 0.6 nM | T/C (%) ([7]; 20 mg/kg, P<0.01): 34.0% | minimal effective dose [7]: 20 mg/kg | mean T1/2 [8, 13]: 17.5 to 36.5 h | median Tmax [8, 13]: 4 to 8 h | MTD [8, 14]: 50 mg | dose group from which the drug has shown its efficacy [8, 14]: 12 mg | half-life [8]: ~ 20 h | day on which steady state was reached ([8]; once every other day, ref HQP1351 SJ0003 Protocol): 7 days | increase of AUC and Cmax with dose ([8]; single dose 1-60 mg, multiple doses 1-50 mg, ref HQP1351 SJ0003 Protocol): approximately dose
